According to patent US10130647B2, “Use of ginsenoside M1 for preventing or treating silicosis” (WELLHEAD […]., priority 2015, dated 2018):

How the values were obtained:
[1] = system: mouse J774A.1 macrophages; experiment: Silica crystal-induced IL-1β production in LPS-treated J774A.1 macrophages (ELISA); assay type: cell-based; conditions: M1 30 min, then 1 μg/ml LPS, then 200 μg/ml silica crystal 24 h, FIG. 1, p<0.001 vs silica crystals alone
Protocol: The levels of IL-1β in the culture medium were measured by ELISA. *** indicates a significant difference at the level of p<0.001 compared to […].
In FIG. 1, J774A.1 macrophages (1×10^5 cells/500 μl medium/well) were incubated for 30 min with or without Ginsenoside M1, then for 2 h with or without 1 μg/ml LPS (from Escherichia coli 0111:B4, purchased from Sigma, St. Louis, Mo.) in the continued presence or absence of Ginsenoside M1, and then for 24 h with or without 200 μg/ml silica crystal (purchased from InvivoGen, San Diego, Calif.). The levels of IL-1β in the culture medium were measured by ELISA.
(§1) For ELISA assay, 50 μl of biotinylated antibody reagent and 50 μl of culture medium were added to an anti-IL-1β, TNF-α or IL-6 precoated stripwell plate, and incubated at room temperature for 2 h. After washing the plate three times with washing buffer, 100 μl of diluted streptavidin-HRP (horseradish peroxidase) concentrate was added to each well and incubated at room temperature for 30 min. The washing process was repeated; then 100 μl of a premixed tetramethylbenzidine substrate solution was added to each well and developed at room temperature in the dark for 30 min Following the addition of 100 μl of provided stop solution to each well to stop the reaction, the absorbance of the plate was measured by a microplate reader at a 450 nm wavelength. […]

[2] = system: mouse J774A.1 macrophages; experiment: LPS-induced NLRP3 and proIL-1β expression in J774A.1 macrophages (Western blot); assay type: cell-based; conditions: M1 30 min, then 1 μg/ml LPS 6 h, FIG. 2
Protocol: The levels of NLRP3 and […] in the cell lysates were measured by Western blot.
In FIG. 2, J774A.1 macrophages (2×10^6 cells/2 ml medium/dish) were incubated for 30 min with or without Ginsenoside M1, then for 6 h with or without 1 μg/ml LPS in the continued presence or absence of Ginsenoside M1. The levels of NLRP3 and proIL-1β in the cell lysates were measured by Western blot. In brief, After treatment, the cells were collected and lysed at 4° C. in lysis buffer (25 mM Tris-HCl, pH 7.5, 100 mM NaCl, 2.5 mM EDTA, 2.5 mM EGTA, 20 mM NaF, 1 mM Na3VO4, 20 mM sodium β-glycerophosphate, 10 mM sodium pyrophosphate, 0.5% Triton X-100) containing protease inhibitor cocktail (Sigma, St. Louis, Mo.), then the whole cell lysate was separated by SDS-PAGE and electrotransferred to a PVDF membrane. The membranes were incubated for 1 h at room temperature in blocking solution (5% nonfat milk in phosphate buffered saline with 0.1% Tween 20), then were incubated for 2 h at room temperature with NLRP3 or proIL-1β antibody in blocking solution. […]
J774A.1 macrophages were incubated for 30 min with or without Ginsenoside M1, then for 6 h with or without 1 μg/ml LPS in the continued presence or absence of Ginsenoside M1. The levels of NLRP3 and proIL-1β in the cell lysates were measured by Western blot.

[3] = system: human THP-1 macrophages; experiment: Silica crystal-induced cytokine production in THP-1 macrophages, Ginsenoside M1 added before LPS (ELISA); assay type: cell-based; conditions: M1 30 min, then 1 μg/ml LPS 5 h, then 200 μg/ml silica crystal 24 h
Protocol: The levels of IL-1β in the culture medium were measured by ELISA. ** indicates a significant difference at the level of p<0.01 compared to silica crystal alone.
The levels of TNF-α in the culture medium were measured by ELISA. ** and *** indicates a significant difference at the level of p<0.01 and p<0.001, respectively compared to silica crystal alone.
The levels of IL-6 in the culture medium were measured by ELISA. * and *** indicates a significant difference at the level of p<0.05 and p<0.001, respectively compared to silica crystal alone.
(§2) The mouse macrophages cell line J774A.1 and human monocytic leukemia cell line THP-1 was obtained from the American Type Culture Collection (Rockville, Md.) and cultured in RPMI 1640 medium supplemented with 10% heat-inactivated fetal bovine serum (FBS) and 2 mM L-glutamine (all from Life Technologies, Carlsbad, Calif.) at 37° C. in a 5% CO2 incubator. To induce monocyte-to-macrophage differentiation, THP-1 cells were cultured for 48 h in RPMI-1640 medium supplemented with 100 nM phorbol 12-myristate 13-acetate (Sigma-Aldrich).
In FIG. 3-5, THP-1 macrophages (1×10^5 cells/500 μl medium/well) were incubated for 30 min with or without Ginsenoside M1, then for 5 h with or without 1 μg/ml LPS in the continued presence or absence of Ginsenoside M1, and then for 24 h with or without 200 μg/ml silica crystal (purchased from InvivoGen, San Diego, Calif.). The levels of IL-1β (FIG. 3), TNF-α (FIG. 4) and IL-6 (FIG. 5) in the culture medium were measured by ELISA.
as §1, with “After washing the plate three times with washing buffer, 100 μl of diluted streptavidin-HRP (horseradish peroxidase) concentrate was added to each well and incubated at room temperature for 30 min.” left out

[4] = system: LPS-primed THP-1 macrophages; experiment: Silica crystal-induced cytokine production in LPS-primed THP-1 macrophages, Ginsenoside M1 added after LPS priming (ELISA); assay type: cell-based, human; conditions: THP-1 primed 5 h with 1 μg/ml LPS, then M1 30 min, then 200 μg/ml silica crystal 24 h
Protocol: The levels of IL-1β in the culture medium were measured by ELISA. ** and *** indicates a significant difference at the level of p<0.01 and p<0.001, respectively compared to silica crystal alone.
The levels of TNF-α in the culture medium were measured by ELISA. ** indicates a significant difference at the level of p<0.01 compared to silica crystal alone.
The levels of IL-6 in the culture medium were measured by ELISA. *** indicates a significant difference at the level of p<0.001 compared to silica crystal alone.
as §2
In FIG. 6-8, THP-1 macrophages (1×10^5 cells/500 μl medium/well) were incubated for 5 h with or without 1 μg/ml LPS, then for 30 min with or without Ginsenoside M1 in the continued presence or absence of LPS, and then for 24 h with or without 200 μg/ml silica crystal. The levels of IL-1β (FIG. 6), TNF-α (FIG. 7) and IL-6 (FIG. 8) in the culture medium were measured by ELISA.
as §1, with “After washing the plate three times with washing buffer, 100 μl of diluted streptavidin-HRP (horseradish peroxidase) concentrate was added to each well and incubated at room temperature for 30 min.” left out

[5] = system: Male C57BL/6 mice; experiment: Silica crystal-induced silicosis in mice, BALF analysis; assay type: in vivo, mouse; conditions: 60 mg/kg oral gavage daily day 0, 1, 2
Protocol: In FIG. 9-12, the animal experiments were conducted in accordance with the guidelines of the National Institutes of Health and approved by the Institutional Animal Care and Use Committee of National Ilan University. Male C57BL/6 mice were purchased from the National Laboratory Animal Center (Taipei, Taiwan). The animals were provided a chow diet and water ad libitum under conditions of 22-24° C., 40-70% relative humidity, and a 12 h light-dark cycle. Ginsenoside M1 (60 mg/kg body weight) was oral administered daily by gavage at day 0, 1 and 2. Silicosis in mice was induced by intratracheally exposed to 40 μl aqueous suspensions of 200 μg of silica crystals in PBS daily at day 0, 1 and 2 (n=6). Each day, mice exposed to silica crystals 4 h after Ginsenoside M1 administration. Control mice received PBS. After 4 h of the last silica crystals exposure, all mice were sacrificed using neck breaking, and a bronchoalveolar lavage was carried out by repeatedly instillating and withdrawing 1 ml of 1% BSA/PBS solution three consecutive times. The levels of IL-1β and IL-6 in the bronchoalveolar lavage fluid (BALF) were measured by ELISA. The total cell number in the BALF was counted by a hematocytometer and protein concentration in the BALF was determined by protein assay dye.
For ELISA assay, 50 μl of biotinylated antibody reagent and 50 μl of culture medium were added to an anti-IL-1β, TNF-α or IL-6 precoated stripwell plate, and incubated at room temperature for 2 h. After washing the plate three times with washing buffer, 100 μl of diluted streptavidin-HRP (horseradish peroxidase) concentrate was added to each well and incubated at room temperature for 30 min. The washing process was repeated; then 100 μl of a premixed tetramethylbenzidine substrate solution was added to each well and developed at room temperature in the dark for 30 min Following the addition of 100 μl of provided stop solution to each well to stop the reaction, the absorbance of the plate was measured by a microplate reader at a 450 nm wavelength.

Substance: 20-O-β-D-glucopyranosyl-20(S)-protopanaxadiol [Ginsenoside M1]
- IL-1β secretion in the culture medium [1]: reduced
- level of NLRP3 in the cell lysates [2]: reduced
- level of proIL-1β in the cell lysates [2]: reduced
- IL-1β production ([3]; FIG. 3, p<0.01): reduced
- TNF-α production ([3]; FIG. 4, p<0.01 and p<0.001): reduced
- IL-6 production ([3]; FIG. 5, p<0.05 and p<0.001): reduced
- IL-1β production ([4]; FIG. 6, p<0.01 and p<0.001): reduced
- TNF-α production ([4]; FIG. 7, p<0.01): reduced
- IL-6 production ([4]; FIG. 8, p<0.001): reduced
- silica crystal-induced IL-1β production in the murine BALF ([5]; intratracheal 200 μg silica crystals 4 h after dosing, FIG. 9, p<0.001): significantly reduced
- silica crystal-induced IL-6 production in the murine BALF ([5]; intratracheal 200 μg silica crystals 4 h after dosing, FIG. 10, p<0.001): significantly reduced
- silica crystal-induced increase of total cell number in BALF ([5]; intratracheal 200 μg silica crystals, hematocytometer, FIG. 12, p<0.01): significantly inhibited
- silica crystal-induced increase of total protein concentration in BALF ([5]; intratracheal 200 μg silica crystals, protein assay dye, FIG. 11, p<0.001): significantly inhibited
